Measured values published in patent US20080058368A1, “4,5,6,7-Tetrahydro-[1,2]Dithiolo[4,3-C] Pyridine-3-Thione Compounds” (priority 2004, published 2008).

Key:
C/EBPβ = C/EBPβ activation (phosphorylation, nuclear translocation) by immunochemical method in treated cells; type: cell-based; set-up: key to C/EBPβ activation: O: same enzyme induction as oltipraz; OO: stronger enzyme induction than oltipraz; settings: for C/EBPβ activation: 30 μM, 24 hours, nuclear fractions or lysates, relative to oltipraz; for phosphorylation of 105Serine residue of C/EBPβ: after 3 hours from the culture; for p-C/EBPβ (105Serine) localisation, cytoplasmic to nuclear fractions: after 6 hours
Protocol: (§1) The present experimental example is to confirm C/EBPβ activation by using Compound 1 and Compound 2 which were prepared in the above Examples, and a degree of increase of Glutathione S-transferase A (GSTA), a representative gene which is induced by C/EBPβ activation. […] 0.7 mg/ml of MTT (yellow tetrazolium salt) was added thereto and further cultured for 4 hours. Since MTT is reduced to insoluble formazan crystal in survived cells, the produced crystal was dissolved with DMSO solvent, and the absorbance at 595 nm was measured. The cells were cultured with the newly prepared compounds except for the compounds which kill cells, i.e., Compound 1 and Compound 2 (each 30 μM), for 24 hours, and C/EBPβ activation and GSTA expression in nuclear fractions or lysates obtained from the treated cells were measured by immunochemical method.
When C/EBPβ gene is deleted in animals, regeneration of live tissue is impossible [Greenbaum et al., J Clin Invest. 1998; 102(5):996-1007]. C/EBPβ activation inhibits transforming growth factors (TGF-β) which is a mediating factor of hepatic fibrosis [Kang et al., FASEB J. 2002; 16(14):1988-90]. Therefore, C/EBPβ activation plays an important role in liver tissue regeneration and hepatic fibrosis inhibition. C/EBPβ activation process takes place by mediating phosphorylation of specific amino acid residue, i.e., ^105Serine residue of C/EBPβ [Buck et al., Mol. Cell. 1999; 4(6):1087-92]. Under this background art, it was observed whether or not direct increase of RSK1's activity by the compounds of the present invention induces phosphorylation of ^105Serine residue of C/EBPβ. […] In this experimental example, oltipraz was used as comparative example.

[1] = system: Glutathione S-transferase A (GSTA); test: GSTA expression induced by C/EBPβ activation, immunochemical method; type: cell-based; set-up: key: +: similar activation effects to oltipraz; ++: stronger activation effects than oltipraz; settings: 30 μM, 24 hours, nuclear fractions or lysates, relative to oltipraz
Protocol: as §1
When C/EBPβ gene is deleted in animals, regeneration of live tissue is impossible [Greenbaum et al., J Clin Invest. 1998; 102(5):996-1007]. C/EBPβ activation inhibits transforming growth factors (TGF-β) which is a mediating factor of hepatic fibrosis [Kang et al., FASEB J. 2002; 16(14):1988-90]. Therefore, C/EBPβ activation plays an important role in liver tissue regeneration and hepatic fibrosis inhibition. […]

SMILES	degree of phosphorylation of 188Threonine residue of C/EBPβ (C/EBPβ)	C/EBPβ activation (C/EBPβ)	phosphorylation of 105Serine residue of C/EBPβ (C/EBPβ)	p-C/EBPβ (105Serine) localisation, cytoplasmic to nuclear fractions (C/EBPβ)	GSTA induction [1]
S=c1ssc2c1CN(Cc1ccccc1)CC2 [Compound 1, 5-benzyl-4,5,6,7-tetrahydro-1,2-dithiolo[4,3-c]pyridine-3-thion]	not changed at all	O	increased	moved into the nuclear fractions	++
CCOC(=O)N1CCc2ssc(=S)c2C1 [Compound 2, 3-thioxo-6,7-dihydro-3H,4H-1,2-dithiolo[4,3-c]pyridine-5-carboxylic acid ethyl ester]	not changed at all	O	increased	moved into the nuclear fractions	++
